# Laboratory results reported in patent US11229597B2, “Topical doxycycline composition” (HORUS PHARMA, priority 2017, dated 2022).
# Test: Stability tests of doxycycline (active principle content by HPLC over time)
# Format: physicochemical
# Settings: for stability of doxycycline in glycerol solution as a function of time: 25° C. (FIG. 2)
# Procedure: The preparation in the form of an H/L emulsion containing the active principle and cyclodextrins in solution in the polyol is carried out according to the following method: • The liquid hydrophobic material/semi-solid hydrophobic material base (called phase A) is formulated by mixing in a water bath at 75° C. to make all components miscible. For the mass ratio of liquid hydrophobic material to semi-solid hydrophobic material 0/100, the semi-solid hydrophobic material is added directly to the mixer at 45° C. • The temperature of phase A is lowered to 45° C. and then phase A is transferred to the mixer whose temperature is 45° C. • The cyclodextrin is added to the polyol (called phase B) and magnetically stirred then the doxycyline hyclate is added to phase B and magnetically stirred until all components are completely dissolved, the temperature of the solution is increased to 45° C. • When phases A and B are at the same temperature, phase B is added to phase A under stirring to form an emulsion. • The emulsion is stirred for 30 minutes at 700 rpm at 45° C. and then the temperature of the entire mixture is reduced to 37° C. • The resulting emulsion is packaged and cooled to room temperature. In order to assay of the active principle in the formulation, the following extraction is carried out: • 1.0 g of the formula is diluted in 10.0 g of water and stirred with a suitable stirring system for 30 minutes at 45° C. • After filtration with a nylon filter at 0.45 μm, a dilution in the mobile phase is performed for a high-performance liquid chromatography assay. The active principle content is determined by the following high-performance liquid chromatography method: • Column: XTerra® RP 8 5 μm 4.6×250 mm • Mobile phase: • 65% water containing 0.13% oxalic acid • 22% acetonitrile • 13% methanol • Flow rate: 1.0 mL/min
# Stability tests are performed at temperatures of 25° C. and 40° C.: […]
Molecule,"stability of doxycycline in aqueous solution as a function of time (0.1% aqueous solution, 25° C. and 40° C. (FIG. 1))",stability of doxycycline in glycerol solution as a function of time (0.1% doxycycline hyclate in glycerol with β-cyclodextrins),stability of doxycycline in glycerol solution as a function of time (0.1% doxycycline hyclate in glycerol without β-cyclodextrins)
C[C@H]1c2cccc(O)c2C(=O)C2=C(O)[C@]3(O)C(=O)C(C(N)=O)=C(O)[C@@H](N(C)C)[C@@H]3[C@@H](O)[C@@H]21 [doxycycline],rapidly degraded,–,–
doxycycline hyclate,–,no or little degradation,no or little degradation
